From patent US12606541B2, “PPARg modulators and methods of use” (Eisai R&D Management Co., Ltd., priority 2020, dated 2026) come the findings set out here.

In experiment [1] the test system is UM-UC-9 engineered cells. The experiment in a line: Cell proliferation / short-term viability assay, CellTiter-Glo 144 h. Format: cell-based, human. The note with it: read-out: CTGlo 144 h UMUC9.5, G150. The procedure, abridged:
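Viability read by CellTiter-Glo 2.0 luminescence at day 7 versus DMSO-vehicle wells and a T0 plate measured on day 0. Cells: UM-UC-9 engineered assay-ready stocks, 500 cells/well in high-glucose DMEM with 10% FBS, 37° C, 5% CO2.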
(In general: ATP-based viability assays read luminescence as a measure of living cells.)

The target of experiment [2] is T1, His6-TEV-PPARγ-(234-505) (Homo sapiens, UniProt P37231).
T1 construct: The His6-TEV-PPARγ-(234-505) protein for assay was expressed and purified; TEV cleavage site (N); made in house
T1 sequence (P37231 234-505): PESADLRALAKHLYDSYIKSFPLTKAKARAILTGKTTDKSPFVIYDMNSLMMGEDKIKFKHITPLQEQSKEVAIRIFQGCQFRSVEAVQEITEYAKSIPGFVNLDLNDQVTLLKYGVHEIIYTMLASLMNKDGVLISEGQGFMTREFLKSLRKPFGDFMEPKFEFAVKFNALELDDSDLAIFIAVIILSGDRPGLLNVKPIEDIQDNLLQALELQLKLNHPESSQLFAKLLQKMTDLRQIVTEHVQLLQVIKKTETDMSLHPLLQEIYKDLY
In words: TR-FRET Assay to Measure Co-R Peptide Recruitment to PPARγ. It counts as biochemical. The note with it: Co-R peptide (SMRT-ID2) recruitment, top final concentration 20 μM, read-out: TR-FRET i-Ag, AC50. The method in brief: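 Corepressor recruitment is measured by adding terbium-labeled anti-His antibody and FITC SMRT-ID2 peptide, at 5 and 200 nM final, after a 20-minute room-temperature protein–compound incubation. After one further hour, signal is converted to percent response between DMSO and 500 nM T0070907 wells.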
(TR-FRET usually uses a lanthanide donor and a delayed reading to cut background.)

Read-outs that look alike come from different tables or passages of the source. Some results are limits rather than exact numbers.

With `COc1cc(-c2cc(C(=O)N3CCC(C(=O)NC4CCN(C5COC5)C4)CC34CC4)n[nH]2)c(F)cn1` (mixture of isomers) [Example 396, (S)-4-(5-(5-fluoro-2-methoxypyridin-4-yl)-1H-pyrazole-3-carbonyl)-N—((R)-1-(oxetan-3-yl)pyrrolidin-3-yl)-4-azaspiro[2.5]octane-7-carboxamide and (S)-4-(5-(5-fluoro-2-methoxypyridin-4-yl)-1H-pyrazole-3-carbonyl)-N—((S)-1-(oxetan-3-yl)pyrrolidin-3-yl)-4-azaspiro[2.5]octane-7-carboxamide], in experiment [1], the IC50 was 293 nM. Further, the AC50 in experiment [2] is 97.7 nM.
As to `COc1cc(-c2cc(C(=O)N3CC[C@H](C(=O)NCc4ncc(C5COC5)cc4Cl)CC34CC4)n[nH]2)c(F)cn1` [Example 392, (S)—N-((3-chloro-5-(oxetan-3-yl)pyridin-2-yl)methyl)-4-(5-(5-fluoro-2-methoxypyridin-4-yl)-1H-pyrazole-3-carbonyl)-4-azaspiro[2.5]octane-7-carboxamide], the IC50 in experiment [1] (Homo sapiens, UM-UC-9, 144 h) turned out to be 45.2 nM. In addition, the AC50 in experiment [2] was determined as 9.1 nM.
Consider `COc1cc(-c2cc(C(=O)N3CCC(C(=O)NC4CCC(O)(C(F)(F)F)CC4)CC34CC4)n[nH]2)ncn1` (single isomer, unassigned) [Example 338-A], for which the IC50 in experiment [1] is 16.2 nM. For the same compound, the AC50 in experiment [2] stood at 9.3 nM.
With `COc1cc(-c2cc(C(=O)N3CCC(C(=O)NCc4cccc5[nH]ncc45)CC3)n[nH]2)c(Cl)cn1` [Example 192, N-((1H-indazol-4-yl)methyl)-1-(5-(5-chloro-2-methoxypyridin-4-yl)-1H-pyrazole-3-carbonyl)piperidine-4-carboxamide], in experiment [1] (Homo sapiens, UM-UC-9, 144 h), the IC50 was determined as 375 nM. In experiment [2], the AC50 came to 83.3 nM.
For `COc1cc(-c2cc(C(=O)N3CCC(C(=O)NCc4ncc(N5CC6CC5CN6)cc4Cl)CC34CC4)n[nH]2)c(F)cn1` (mixture of isomers) [Example 462, (S)—N-((5-((1R,4R)-2,5-diazabicyclo[2.2.1]heptan-2-yl)-3-chloropyridin-2-yl)methyl)-4-(3-(5-fluoro-2-methoxypyridin-4-yl)-1H-pyrazole-5-carbonyl)-4-azaspiro[2.5]octane-7-carboxamide and (S)—N-((5-((1S,4S)-2,5-diazabicyclo[2.2.1]heptan-2-yl)-3-chloropyridin-2-yl)methyl)-4-(3-(5-fluoro-2-methoxypyridin-4-yl)-1H-pyrazole-5-carbonyl)-4-azaspiro[2.5]octane-7-carboxamide], the IC50 in experiment [1] came out at 513 nM. For the same compound, the AC50 in experiment [2] was determined as 14.1 nM.
For `COc1cc(-c2cc(C(=O)N3CCC(C(=O)NCc4nccnc4C4CC4CO)CC34CC4)n[nH]2)c(F)cn1` (mixture of isomers) [Example 481, (S)-4-(5-(5-fluoro-2-methoxypyridin-4-yl)-1H-pyrazole-3-carbonyl)-N-((3-((1S,2S)-2-(hydroxymethyl)cyclopropyl)pyrazin-2-yl)methyl)-4-azaspiro[2.5]octane-7-carboxamide and (S)-4-(5-(5-fluoro-2-methoxypyridin-4-yl)-1H-pyrazole-3-carbonyl)-N-((3-((1R,2R)-2-(hydroxymethyl)cyclopropyl)pyrazin-2-yl)methyl)-4-azaspiro[2.5]octane-7-carboxamide], the IC50 in experiment [1] came out at 1220 nM. Besides, in experiment [2], the AC50 was 129 nM.
Turning to `COc1cc(-c2cc(C(=O)N3CC[C@H](C(=O)NC4CCN(c5cnnc(C)c5)C4)CC34CC4)n[nH]2)c(F)cn1` (single isomer, unassigned) [Example 452-A], the IC50 in experiment [1] is 2010 nM. In experiment [2], the AC50 was 8.7 nM.
`COc1cc(-c2cc(C(=O)N3CCC(C(=O)NCC45CC(CCO4)C5)CC3)n[nH]2)c(Cl)cn1` [Example 230]: the IC50 in experiment [1] (Homo sapiens, UM-UC-9, 144 h) was 697 nM. In addition, the AC50 in experiment [2] came out at 134 nM.
Consider `COc1cc(-c2[nH]nc(C(=O)N3CCC(C(=O)NC4CCC(C)CC4)CC3)c2Cl)ccn1` (single isomer, unassigned) [Example 110-B], for which the IC50 in experiment [1] (listed as 110b) amounted to 697 nM. For the same compound, the AC50 in experiment [2] (listed as 110b) worked out at 217 nM.
On to `Cc1cc(-c2cc(C(=O)N3CCC(C(=O)NC4CCC(O)(C(F)(F)F)CC4)CC34CC4)n[nH]2)ncn1` (single isomer, unassigned) [Example 339-B], for which, in experiment [1], the IC50 is 19.5 nM. Further, the AC50 in experiment [2] worked out at 6.9 nM.
Turning to `COc1cc(-c2cc(C(=O)N3CC[C@H](C(=O)NCc4ncc(F)cc4F)CC34CC4)n[nH]2)c(F)cn1` [Example 400, (S)—N-((3,5-difluoropyridin-2-yl)methyl)-4-(5-(5-fluoro-2-methoxypyridin-4-yl)-1H-pyrazole-3-carbonyl)-4-azaspiro[2.5]octane-7-carboxamide], the IC50 in experiment [1] (Homo sapiens, UM-UC-9, 144 h) turned out to be 24.3 nM. Further, the AC50 in experiment [2] stood at 12.6 nM.
For `COc1cc(-c2cc(C(=O)N3CC[C@H](C(=O)NC4CCC(C)(C)N(C)C4)CC34CC4)n[nH]2)c(F)cn1` (single isomer, unassigned) [Example 424-B], in experiment [1], the IC50 came out at 929 nM. Besides, the AC50 in experiment [2] is 209 nM.
Regarding `COc1cc(-c2cc(C(=O)N3CC[C@H](C(=O)NCC45COC(CN)(C4)C5)CC34CC4)n[nH]2)c(F)cn1` [Example 499, (S)—N-((1-(aminomethyl)-2-oxabicyclo[2.1.1]hexan-4-yl)methyl)-4-(5-(5-fluoro-2-methoxypyridin-4-yl)-1H-pyrazole-3-carbonyl)-4-azaspiro[2.5]octane-7-carboxamide], in experiment [1] (Homo sapiens, UM-UC-9, 144 h), the IC50 was > 10000 nM. The AC50 in experiment [2] turned out to be 294 nM.
For `COc1cc(-c2cc(C(=O)N3CC[C@H](C(=O)NC45CC(CO)(C4)OC5C)CC34CC4)n[nH]2)c(F)cn1` (single isomer, unassigned) [Example 518-B], the IC50 in experiment [1] was > 10000 nM. Further, the AC50 in experiment [2] was determined as 996 nM.
As for `COc1cc(-c2cc(C(=O)N3CC[C@H](C(=O)Nc4cnn5c4CC(O)CC5)CC34CC4)n[nH]2)c(F)cn1` (single isomer, unassigned) [Example 514-A], the IC50 in experiment [1] worked out at 4200 nM. For the same compound, the AC50 in experiment [2] was 149 nM.
With `COc1cc(-c2cc(C(=O)N3CCC(C(=O)Nc4cnn5ccc(C(C)O)nc45)CC34CC4)n[nH]2)c(F)cn1` (mixture of isomers) [Example 445, (S)-4-(5-(5-fluoro-2-methoxypyridin-4-yl)-1H-pyrazole-3-carbonyl)-N-(5-((R)-1-hydroxyethyl)pyrazolo[1,5-a]pyrimidin-3-yl)-4-azaspiro[2.5]octane-7-carboxamide and (S)-4-(5-(5-fluoro-2-methoxypyridin-4-yl)-1H-pyrazole-3-carbonyl)-N-(5-((S)-1-hydroxyethyl)pyrazolo[1,5-a]pyrimidin-3-yl)-4-azaspiro[2.5]octane-7-carboxamide], in experiment [1], the IC50 amounted to 22.4 nM. Also, the AC50 in experiment [2] came to 1.2 nM.
As for `COc1cc(-c2cc(C(=O)N3CCC(C(=O)Nc4cnc(C)c(C)n4)CC3)n[nH]2)c(Cl)cn1` [Example 260, 1-(5-(5-chloro-2-methoxypyridin-4-yl)-1H-pyrazole-3-carbonyl)-N-(5,6-dimethylpyrazin-2-yl)piperidine-4-carboxamide], the IC50 in experiment [1] (Homo sapiens, UM-UC-9, 144 h) was 4030 nM. The AC50 in experiment [2] turned out to be 970 nM.
Take `COc1cc(-c2cc(C(=O)N3CCC(C(=O)NCc4ncccc4C(F)(F)F)CC3)n[nH]2)c(Cl)cn1` [Example 130, 1-(5-(5-chloro-2-methoxypyridin-4-yl)-1H-pyrazole-3-carbonyl)-N-((3-(trifluoromethyl)pyridin-2-yl)methyl)piperidine-4-carboxamide]: in experiment [1] (Homo sapiens, UM-UC-9, 144 h), the IC50 came out at 685 nM. For the same compound, in experiment [2], the AC50 came to 75.9 nM.
With `COc1cc(-c2cc(C(=O)N3CC[C@H](C(=O)Nc4cnn5c4CC(O)CC5)CC34CC4)n[nH]2)c(F)cn1` (single isomer, unassigned) [Example 514-B], the IC50 in experiment [1] turned out to be 4310 nM. For the same compound, the AC50 in experiment [2] was 59.6 nM.
As to `COc1cc(-c2cc(C(=O)N3CCC(C(=O)NCc4ccc5cc[nH]c5n4)CC3)n[nH]2)c(Cl)cn1` [Example 226, N-((1H-pyrrolo[2,3-b]pyridin-6-yl)methyl)-1-(5-(5-chloro-2-methoxypyridin-4-yl)-1H-pyrazole-3-carbonyl)piperidine-4-carboxamide], in experiment [1] (Homo sapiens, UM-UC-9, 144 h), the IC50 was 427 nM. Also, the AC50 in experiment [2] turned out to be 42.8 nM.
On to `COc1cc(-c2cc(C(=O)N3CCC(C(=O)NC4CCC(C)CC4)CC3)n[nH]2)c(F)cn1` (single isomer, unassigned) [Example 114-B], for which, in experiment [1] (listed as 114b), the IC50 was 26.8 nM. Moreover, in experiment [2] (listed as 114b), the AC50 is 15.8 nM.
On to `COc1cc(-c2cc(C(=O)N3CCC(C(=O)NC4(C#N)CCC4)CC3)n[nH]2)c(Cl)cn1` [Example 128, 1-(5-(5-chloro-2-methoxypyridin-4-yl)-1H-pyrazole-3-carbonyl)-N-(1-cyanocyclobutyl)piperidine-4-carboxamide], for which, in experiment [1] (Homo sapiens, UM-UC-9, 144 h), the IC50 worked out at 2560 nM. The AC50 in experiment [2] worked out at 864 nM.
